The nature of data set [1]: Thioflavin-T assay of the peptides' own amyloid fibril formation. The conditions noted are these: 100 μmol/L peptide, 37° C., up to 10 days. It counts as physicochemical. The protocol: All peptides were HFIP treated and reconstituted in 100 mM Tris buffer (pH 7.4) to obtain a 100 μmol/L concentration. […] Peptides were incubated over a period of 10 days at 37° C. Samples containing 15 μg of incubated peptides were taken at indicated intervals and fluorescence was measured as previously described in a Perkin-Elmer LS-50B fluorescence spectrophotometer (Perkin Elmer Instruments, Shelton, Conn.) (Wisniewski et al., “Acceleration of Alzheimer's Fibril Formation by Apolipoprotein E in vitro,” Am. J. Pathol. 145:1030-1035 (1994); Golabek et al., “The Interaction Between Apolipoprotein E and Alzheimer's Amyloid β-peptide is Dependent on β-peptide Conformation,” J. Biol. Chem. 271:10602-10606 (1996); which are hereby incorporated by reference in their entirety). The mean±standard deviation (“SD”) for three separate experiments was plotted in FIG. 1. Differences in amount of fibrils formed by the different peptides were evaluated by means of a repeated measures ANOVA, followed by a Tukey HSD post-hoc test using Statistica (version 6.1) (StatSoft Inc., Tulsa, Okla.).

Data set [2] concerns the target T1, apoE4 (Homo sapiens, UniProt P02649, C130R).
T1 construct: made in house; host or cells: primary forebrain astrocytes of GFAP-human apoE4 transgenic mice
Kind of data set: Thioflavin-T aggregation inhibition: apoE4-promoted Aβ1-42 fibril formation. The data set is classed as biochemical. The protocol: (§1) Recombinant apoE3 and apoE4 were purchased from Calbiochem Corp. (San Diego, Calif.). Lipidated apoE3 and apoE4 complexes were prepared from primary cultures of astrocytes derived from Tg mice in which human apoE3 or apoE4 were expressed under the control of the astrocyte-specific glial fibrillary acidic protein (GFAP) promoter as described previously (Fagan et al., “Unique Lipoproteins Secreted by Primary Astrocytes from Wild Type, ApoE (−/−), and Human ApoE Transgenic Mice,” J. Biol. Chem. 274:30001-30007 (1999); DeMattos et al., “Purification and Characterization of Astrocyte-secreted Apolipoprotein E and J-Containing Lipoproteins from Wild-type and Human ApoE Transgenic Mice,” Neurochemistry International 39:415-425 (2001); Sun et al., “Glial Fibrillary Acidic Protein-apolipoprotein E (apoE) Transgenic Mice: Astrocyte-specific Expression and Differing Biological Effects of Astrocyte-secreted ApoE3 and ApoE4 Lipoproteins,” J. Neurosci. 18:3261-3272 (1998); which are hereby incorporated by reference in their entirety). […] The purity of the apoE preparation was assessed by SDS-PAGE.
(§2) Aβ1-40 and Aβ1-42 were studied for comparison. […] Samples containing 15 μg of incubated peptides were taken at indicated intervals and fluorescence was measured as previously described in a Perkin-Elmer LS-50B fluorescence spectrophotometer (Perkin Elmer Instruments, Shelton, Conn.) (Wisniewski et al., “Acceleration of Alzheimer's Fibril Formation by Apolipoprotein E in vitro,” Am. J. Pathol. 145:1030-1035 (1994); Golabek et al., “The Interaction Between Apolipoprotein E and Alzheimer's Amyloid β-peptide is Dependent on β-peptide Conformation,” J. Biol. Chem. 271:10602-10606 (1996); which are hereby incorporated by reference in their entirety). […] Differences in amount of fibrils formed by the different peptides were evaluated by means of a repeated measures ANOVA, followed by a Tukey HSD post-hoc test using Statistica (version 6.1) (StatSoft Inc., Tulsa, Okla.). […]

For the next data set, the target named is T2, apoE3 (Homo sapiens, UniProt P02649).
T2 construct: made in house; host or cells: primary forebrain astrocytes of GFAP-human apoE3 transgenic mice
Description: Thioflavin-T aggregation inhibition: apoE3-promoted Aβ1-42 fibril formation. The data set is classed as biochemical. The conditions noted are these: for relative reduction in fluorescence: apoE3 preincubated with Aβ12-28P, then added to Aβ1-42. The protocol:
as §1, §2

The target of data set [3] is T3, Aβ1-42 (Homo sapiens, UniProt P05067).
T3 construct: made in house; host or cells: chemical peptide synthesis
Kind of data set: Thioflavin-T assay: peptide alone added to Aβ1-42 (no apoE). The conditions noted are these: same concentration of Aβ12-28P. The data set is classed as biochemical.

The target of data set [4] is T1, apoE4. Kind of data set: Toxicity rescue: neutralizing apoE4's effect on Aβ1-42 neurotoxicity, MTT assay in SK-N-SH cells. It counts as cell-based. The conditions noted are these: Aβ1-42 100 μmol/L, apoE4 0.5 μmol/L preincubated with 0.5 μmol/L peptide; two day p<0.05, 6 day p<0.01. The protocol: (§3) All experiments were run in triplicate. The results from cell culture neurotoxicity studies were evaluated by one-way analysis of variance, followed by a Dunnett's test as a post hoc analysis.
In general terms: Tetrazolium dyes change colour on reduction, which living cells bring about.

For data set [5], the system named is Aβ1-42. Description: Aβ1-42 toxicity in SK-N-SH cells with peptide added without apoE, MTT assay. The data set is classed as cell-based, human. The method, then: as §3

Structures are written as SMILES. “Also recorded” adds a separate entry of the source. Where two headings read alike, the source gives them in different places. Square brackets hold non-standard residues; d marks the D form. Peptide text beside a SMILES is read from it.

T1 sequence (P02649 19-317 C130R): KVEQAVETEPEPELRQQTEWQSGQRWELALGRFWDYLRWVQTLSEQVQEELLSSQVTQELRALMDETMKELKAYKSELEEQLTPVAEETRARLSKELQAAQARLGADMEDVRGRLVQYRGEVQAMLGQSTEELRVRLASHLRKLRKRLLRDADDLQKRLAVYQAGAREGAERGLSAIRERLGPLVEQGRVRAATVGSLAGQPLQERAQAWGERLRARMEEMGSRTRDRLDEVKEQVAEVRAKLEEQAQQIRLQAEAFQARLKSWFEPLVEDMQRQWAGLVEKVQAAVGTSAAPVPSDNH
T2 sequence (P02649 19-317): as the sequence (P02649 19-317 C130R) above, with R112C counted along it
T3 sequence (P05067 672-713): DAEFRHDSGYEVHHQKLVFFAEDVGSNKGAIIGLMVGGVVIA

Regarding `CC(=O)N[C@@H](C(=O)N[C@H](Cc1c[nH]cn1)C(=O)N[C@H](Cc1c[nH]cn1)C(=O)N[C@H](CCC(N)=O)C(=O)N[C@H](CCCCN)C(=O)N[C@H](CC(C)C)C(=O)N1CCC[C@@H]1C(=O)N[C@H](Cc1ccccc1)C(=O)N[C@H](Cc1ccccc1)C(=O)N[C@H](C)C(=O)N[C@H](CCC(=O)O)C(=O)N[C@H](CC(=O)O)C(=O)N[C@@H](C(=O)NCC(=O)N[C@H](CO)C(=O)N[C@H](CC(N)=O)C(=O)N[C@H](CCCCN)C(N)=O)C(C)C)C(C)C` [Aβ12-28P] (Ac-[dV][dH][dH][dQ][dK][dL][dP][dF][dF][dA][dE][dD][dV]G[dS][dN][dK]-NH2), in data set [1], the “fibril formation (Thioflavin-T fluorescence)” value is listed as “did not form any fibrils; also recorded: non-fibrillogenic; also recorded: No fibrils were formed”. Also, the “relative reduction in fluorescence” value at apoE4 [2] came to 25.3%; at apoE4 [2] (apoE4 preincubated with Aβ12-28P, then added to Aβ1-42, day six), 52.3%; on apoE3 (after 24 h of incubation), 14.5%; at apoE3 (day six), 48.3%. For the same molecule, the “chaperoning effect of apoE4 on Aβ1-42 fibril formation” value at apoE4 [2] (apoE4 preincubated with equimolar Aβ12-28P, p<0.01) is “significantly reduced”. For the same molecule, at apoE3 (apoE3 preincubated with equimolar Aβ12-28P, p<0.05), the “chaperoning effect of apoE3 on Aβ1-42 fibril formation” value is recorded as “significantly reduced”. The “effect of peptide alone on Aβ1-42 fibrillogenesis” value on Aβ1-42 [3] is reported as “did not have any significant effect”. The “rescue of cell viability from apoE4-enhanced Aβ1-42 toxicity” value on apoE4 [4] is on record as “significant rescue of the cell viability; also recorded: could be neutralized”. The “cell viability, Aβ1-42 incubated with peptide” value with Aβ1-42 [5] (10 μmol/L Aβ1-42 with 10 μmol/L peptide) is recorded as “Much more striking improvement in cell viability”. The “cell viability, Aβ1-42 incubated with peptide without apoE” value in the data set on Aβ1-42 [5] (Aβ1-42 100 μmol/L, peptide 0.5 μmol/L, six days) was “slightly increased cell viability”.
